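Each compound was tested at five concentrations against cells in 96-well plates for 48 hours. Abbreviation: GI50, concentration required for 50% inhibition of growth. The concentration for full growth arrest is given as TGI.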
Experiments:
Test in all cases: growth of human tumour cells (NCI), 48 h
HL-60(TB) leukemia = tested on: HL-60(TB) leukemia
MALME-3M melanoma = tested on: MALME-3M melanoma
HOP-92 NSCLC = tested on: HOP-92 NSCLC
CCRF-CEM leukemia = tested on: CCRF-CEM leukemia
A498 renal = tested on: A498 renal
RXF 393 renal = tested on: RXF 393 renal
OVCAR-4 ovarian = tested on: OVCAR-4 ovarian
COLO 205 colon = tested on: COLO 205 colon
MDA-MB-435 = tested on: MDA-MB-435
T-47D breast = tested on: T-47D breast

Row | SMILES | TGI (HL-60(TB) leukemia) [µM] | TGI (MALME-3M melanoma) [µM] | TGI (HOP-92 NSCLC) [µM] | TGI (CCRF-CEM leukemia) [µM] | TGI (A498 renal) [µM] | TGI (RXF 393 renal) [µM] | TGI (OVCAR-4 ovarian) [µM] | TGI (COLO 205 colon) [µM] | GI50 (HL-60(TB) leukemia) [µM] | GI50 (HOP-92 NSCLC) [µM] | GI50 (CCRF-CEM leukemia) [µM] | GI50 (A498 renal) [µM] | GI50 (MDA-MB-435) [µM] | TGI (MDA-MB-435) [µM] | GI50 (OVCAR-4 ovarian) [µM] | GI50 (COLO 205 colon) [µM] | GI50 (RXF 393 renal) [µM] | TGI (T-47D breast) [µM] | GI50 (MALME-3M melanoma) [µM] | GI50 (T-47D breast) [µM]
1 | COc1ccc(C=O)cc1O[Si](C)(C)C(C)(C)C | > 100 | > 100 | > 100 | > 100 | > 100 | > 100 | > 100 | > 100 |  |  |  |  |  |  |  |  |  |  |  | 
2 | COC(=O)C(=O)CC(=O)CCn1[nH]c(=O)c(Cl)c(Cl)c1=O | > 100 | > 100 | > 100 |  | > 100 | > 100 | > 100 | > 100 |  |  |  |  |  |  |  |  |  |  |  | 
3 | COc1ccc2c(c1)OC1=C(C(=O)OC1)C2c1cc(OC)c2c(c1)OCCO2 (stereo not drawn) | 0.174 |  | > 100 |  | 0.232 |  | > 100 | 0.13 | 0.042 | 0.0629 | 0.0647 | 0.0249 | 0.021 | 0.056 | 0.173 | 0.0362 |  |  |  | 
4 | CCN(CC)CCNC(Cc1ccccc1)c1ccc(OCc2ccccc2)cc1 (stereo not drawn) | 7.79 |  |  | 13.7 | 7.94 | 18.1 | 19.4 | 3.4 | 2.77 |  | 3.19 | 2.02 | 3.16 | 11 | 5.42 | 1.79 | 3.83 |  |  | 
5 | O=C(O)CCCc1ccc2ccc3ccccc3c2c1 |  | > 100 | > 100 |  | > 100 | > 100 | > 100 | > 100 |  |  |  |  |  | > 100 |  |  |  | > 100 |  | 
6 | O=C1N/C(=C\[N+](=O)[O-])c2ccccc21 | > 100 | > 100 | > 100 | > 100 | > 100 | > 100 | > 100 | > 100 |  |  |  |  |  |  |  |  |  |  |  | 
7 | CCC[CH2][Sn]([CH2]CCC)([O]C(=O)CN)[O]C(=O)CN | 65 | 41.2 | > 100 | 51.8 | > 100 | 44.3 | > 100 | > 100 | 18.5 | 73.2 | 5.93 | 44.8 |  |  | > 100 | 42.9 | 16.2 |  | 6.1 | 
8 | COc1cc(NCC(C#N)C#N)ccc1N=Nc1ccc(Cl)cc1 |  | 71.4 |  | 61.9 | > 100 | 79 | > 100 | 31.7 |  |  |  |  |  |  |  |  |  |  |  | 
9 | COc1cc(NS(=O)(=O)c2ccc(C)cc2)c2nccnc2c1 | 51.7 | > 100 | > 100 | 81.2 | > 100 | 64.7 | > 100 | 90.1 |  |  |  |  |  |  |  |  |  |  |  | 
10 | O=C1C=C(Nc2ccccc2C(=O)CC(=O)C(=O)Nc2cccc([N+](=O)[O-])c2)c2ccccc2C1=O | 15.6 | 46.7 | > 100 | 87.8 | > 100 | > 100 | > 100 | > 100 |  |  |  |  |  |  |  |  |  |  |  | 
11 | COc1ccc([C@@]2(O)c3c(ccc(O)c3OC)[C@H]2OC)c(OC)c1 | > 100 | > 100 | > 100 | > 100 | > 100 |  | > 100 | > 100 |  |  |  |  |  |  |  |  |  |  |  | 
12 | CC(=O)C1C(c2ccccc2)C2(C)OC(=O)C(C#N)C12C (stereo not drawn) | > 100 | > 100 |  | > 100 |  | > 100 | > 100 | > 100 |  |  |  |  |  |  |  |  |  |  |  | 
13 | N#C/C(=C/c1cccc(Oc2ccccc2)c1)c1ccccc1 | > 100 | > 100 | > 100 | > 100 | > 100 |  | > 100 | > 100 |  |  |  |  |  |  |  |  |  |  |  | 
14 | Cc1ccc(S(=O)(=O)N=Nc2c(O)[nH]c3cc(O)c(C(=O)O)cc23)cc1 |  | > 100 |  | > 100 | > 100 | > 100 | > 100 | > 100 |  |  |  |  |  | > 100 |  |  |  | > 100 |  | 
15 | CCN1C(=O)/C(=C/c2c(Cl)[nH]c3cc(C)c(OC)cc23)c2ccccc21 |  | 70.6 | 63.4 | 5.22 | 33 | 34 | > 100 | 15.4 |  | 12.8 | 1.76 | 5.95 | 0.315 | 0.737 | 29.8 | 2.77 | 1.11 | > 100 | 14.9 | 3.76
16 | O=NNc1ccc2ccccc2n1 | > 100 |  |  | > 100 | > 100 |  | > 100 |  |  |  |  |  |  | > 100 |  |  |  | > 100 |  | 
17 | CCOC(=O)[CH-]C(=O)C12CC3CC(CC(C3)C1)C2.CCOC(=O)[CH-]C(=O)C12CC3CC(CC(C3)C1)C2.CC[O-].CC[O-].[Ti+4] | > 100 | > 100 | > 100 | > 100 | > 100 |  | > 100 | > 100 | > 100 | > 100 | > 100 | > 100 |  |  | > 100 | > 100 |  |  | > 100 | 
18 | O=S(=O)(C1=CC(S(=O)(=O)c2ccccc2)CN(Cc2ccccc2)C1c1cccc2ccccc12)c1ccccc1 (stereo not drawn) | > 69 | > 69 | > 69 | > 69 | > 69 | > 69 | > 69 |  |  |  |  |  |  |  |  |  |  |  |  | 
19 | O=c1[nH]c2ccccc2cc1-c1nc2ccc(Cl)cc2[nH]1 | 10.4 | > 100 | 9.29 | > 100 | 15.7 |  | > 100 | > 100 | 3.24 | 1.48 | 3.24 | 2.48 | 4.39 | > 100 | 5.09 | 3.25 |  | > 100 | > 100 | 3.33
20 | CNC(=O)OCc1c(COC(=O)NC)c(-c2ccc(-c3ccccc3)cc2)n(C)c1C | 18.1 | 10.6 | 11.9 |  | 2.39 | 2.91 | 10.9 | 16.5 |  |  |  |  |  | 21.9 |  |  |  | 35.2 |  | 
21 | CC(=O)Oc1cc2c(cc1OC(C)=O)C1(C)CCC2(C)c2cc(OC(C)=O)c(OC(C)=O)cc21 | 19.9 | > 100 | 38.2 | 11.4 |  | > 100 | 32.1 | > 100 |  |  |  |  |  |  |  |  |  |  |  | 
